Reference: patent US20260115187A1, “TRICYCLIC SKELETON COMPOUND AND USE THEREOF IN PREPARATION OF ANTITUMOR DRUG” (ZHONGSHAN HOSPITAL, FUDAN UNIVERSITY, priority 2024, published 2026)
Like-named read-outs stand apart in the source and are kept apart here.

Legend:
[1] = system: MHCC97H KSR2 OE (97H cells overexpressing KSR2); test: Cell IC50 assay (CCK8 cell viability), MHCC97H KSR2 OE; type: cell-based; settings: Homo sapiens
Procedure: (§1) (1) Cell Preparation: Hepatoma cells (PLC/PRF/5, sourced from the Chinese Academy of Sciences; MHCC97H, sourced from this research institute) in good growth condition are prepared. The cells are trypsinized, diluted, and seeded into 96-well cell culture plates. 1,000-3,000 cells are added per well. The plates are then placed in a cell culture incubator at 37° C. with 5% CO2. Drugs are added after the cells have adhered for 24 h.
(§2) (2) Drug Addition: The drugs are subjected to gradient dilution, typically setting 9 concentrations. Control groups containing no drug medium and medium containing only the drug solvent are also set up. The diluted drugs are added to the cell culture plates seeded the previous day. The plates are incubated for 72 h.
(§3) (3) CCK8 Assay for Cell Viability: CCK8 is mixed with culture medium at a 1:10 ratio. 100 μL of this mixture is added to each well of the cell culture plate. After incubating for 2-4 h, the OD values are measured using a microplate reader.
(§4) (4) Data Analysis: Based on the corresponding OD values, the data are compiled, IC50 curves are plotted, and the IC50 values are obtained.
(§5) (5) IC50 Verification: The theoretical IC50 value is identified from the IC50 curve. Drug concentrations at ½ times, 1 time, and 2 times this theoretical value are used for verification.

[2] = system: PLC/PRF/5 KSR2 OE (PLC cells overexpressing KSR2); test: Cell IC50 assay (CCK8 cell viability), PLC/PRF/5 KSR2 OE; type: cell-based; settings: Homo sapiens, read-out: IC50 value of cell viability, PLC/PRF/5 KSR2 OE (PLC cells overexpressing KSR2)
Procedure: as §1, §2, §3, §4, §5

[3] = read-out: IC50 value of cell viability, MHCC97H KSR2 OE (97H cells overexpressing KSR2)
[4] = hepatoma cells, 72 h incubation, CCK8, read-out: IC50 value of cell viability, MHCC97H KSR2 OE (97H cells overexpressing KSR2)
[5] = PLC-PRF-5, hepatoma cells, 72 h incubation, CCK8

| Structure (SMILES) | IC50 [1, 3] | IC50 ([2]; PLC-PRF-5, 72 h) | IC50 [1, 4] | IC50 [2, 5] |
| --- | --- | --- | --- | --- |
| Cn1nc(C(=O)NCCCN2CCN(C3CCC(F)(F)CC3)CC2)c2c1-c1ccccc1SC2 [Compound 1] | 41 µM | 45 µM |  |  |
| Cn1nc(C(=O)NCCCN2CCN(C3CCOCC3)CC2)c2c1-c1ccccc1SC2 [Compound 2] | > 100 µM | 84 µM |  |  |
| Cn1nc(C(=O)NCCCN2CCN(C3CCCC3)CC2)c2c1-c1ccccc1SC2 [Compound 3] |  |  | 56 µM | 32 µM |
| Cn1nc(C(=O)NCCCN2CCN(C3CC4(CCC4)C3)CC2)c2c1-c1ccccc1SC2 [Compound 4] |  |  | 15 µM | 22 µM |
| Cn1nc(C(=O)NCCCN2CCN(CC3CC3)CC2)c2c1-c1ccccc1SC2 [Compound 5] | 44 µM | 25 µM |  |  |
| Cn1nc(C(=O)NCCCN2CCN(C3CCC3)CC2)c2c1-c1ccccc1SC2 [Compound 6] | 70 µM | 42 µM |  |  |
| Cn1nc(C(=O)NCCCN2CCN(C3CCCCC3)CC2)c2c1-c1ccccc1S(=O)(=O)C2 [Compound 7] |  |  | 88 µM | 85 µM |
| Cn1nc(C(=O)NCCCN2CCN(C3CCCCC3)CC2)c2c1-c1ccccc1SC2 [Compound 8] | 62 µM | 61 µM |  |  |
| Cn1nc(C(=O)NCCCN2CCN(Cc3ccccc3)CC2)c2c1-c1ccccc1SC2 [Compound 10] | 38 µM | 16 µM |  |  |
| Cn1nc(C(=O)NCCN2CCN(C3CCCCC3)CC2)c2c1-c1ccccc1SC2 [Compound 11] | 62 µM | 35 µM |  |  |
| CN(CCCN1CCN(C2CCCCC2)CC1)C(=O)c1nn(C)c2c1CSc1ccccc1-2 [Compound 12] |  |  | 86 µM | 56 µM |
| Cn1nc(C(=O)NCCCN2CCC(N3CCCCC3)CC2)c2c1-c1ccccc1SC2 [Compound 13] |  |  | 2 µM | 2 µM |
| CCn1nc(C(=O)NCCCN2CCN(C3CCCCC3)CC2)c2c1-c1ccccc1SC2 [Compound 14] |  |  | 14 µM | 39 µM |
| O=C(NCCCN1CCN(C2CCCCC2)CC1)c1nn(CC2CC2)c2c1CSc1ccccc1-2 [Compound 15] |  |  | 39 µM | 10 µM |
| Cn1nc(C(=O)NCCCN2CCN(C3CCCCC3)CC2)c2c1-c1ccccc1OC2 [Compound 16] |  |  | 46 µM | 26 µM |
| Cn1nc(C(=O)NCCCN2CCN(C3CCCCC3)CC2)c2c1-c1ccccc1CC2 [Compound 17] |  |  | 57 µM | 21 µM |
| Cn1nc(C(=O)NCC(O)CN2CCN(c3ccccc3)CC2)c2c1-c1ccccc1SC2 (stereo not shown) [Compound 18] |  |  | 40 µM | 42 µM |
| Cn1nc(C(=O)NCCCN2CCN(c3ccccn3)CC2)c2c1-c1ccccc1SC2 [Compound 19] |  |  | 40 µM | 40 µM |
| Cn1nc(C(=O)NCCCN2CCN(c3cccnc3)CC2)c2c1-c1ccccc1SC2 [Compound 20] |  |  | 32 µM | 29 µM |
| Cn1nc(C(=O)NCCCN2CCN(c3ccncc3)CC2)c2c1-c1ccccc1SC2 [Compound 21] |  |  | 6 µM | 7 µM |

| Structure (SMILES) | IC50 [1, 3] | IC50 ([2]; PLC-PRF-5, 72 h) | IC50 [1, 4] | IC50 [2, 5] |
| --- | --- | --- | --- | --- |
| Cn1nc(C(=O)NCCCN2CCN(c3ccccc3Cl)CC2)c2c1-c1ccccc1SC2 [Compound 22] |  |  | 30 µM | 15 µM |
| Cn1nc(C(=O)NCC(F)(F)CN2CCN(c3ccccc3)CC2)c2c1-c1ccccc1SC2 [Compound 23] |  |  | 8 µM | 8 µM |
| Cn1nc(C(=O)NCCCN2CCN(c3cccc(Cl)c3)CC2)c2c1-c1ccccc1SC2 [Compound 24] |  |  | 39 µM | 18 µM |
| Cn1nc(C(=O)NCCCN2CCN(c3ccc(Cl)cc3)CC2)c2c1-c1ccccc1SC2 [Compound 25] |  |  | 37 µM | 20 µM |
| Cn1nc(C(=O)NCCCN2CCN(c3ccc(C(F)(F)F)cc3)CC2)c2c1-c1ccccc1SC2 [Compound 26] |  |  | > 100 µM | 14 µM |
| COc1ccc(N2CCN(CCCNC(=O)c3nn(C)c4c3CSc3ccccc3-4)CC2)cc1 [Compound 27] |  |  | 13 µM | 31 µM |
| Cn1nc(C(=O)NCCCN2CCN(c3ncccn3)CC2)c2c1-c1ccccc1SC2 [Compound 28] |  |  | 31 µM | 11 µM |
| Cn1nc(C(=O)NCCCN2CCN(c3ccc(C#N)cc3)CC2)c2c1-c1ccccc1SC2 [Compound 29] |  |  | 2 µM | 41 µM |
| CN1CCN(C2CCN(CCCNC(=O)c3nn(C)c4c3CSc3ccccc3-4)CC2)CC1 [Compound 30] |  |  | 6 µM | 9 µM |
| Cn1nc(C(=O)NCCCN2CCC(c3ccccc3)CC2)c2c1-c1ccccc1SC2 [Compound 31] |  |  | 19 µM | 21 µM |
| Cn1nc(C(=O)NCCCN2CCC(O)(c3ccccc3)CC2)c2c1-c1ccccc1SC2 [Compound 32] |  |  | 16 µM | 17 µM |
| CN1CCN(C2CCN(CC(F)(F)CNC(=O)c3nn(C)c4c3CSc3ccccc3-4)CC2)CC1 [Compound 33] |  |  | 18 µM | 19 µM |
| Cn1nc(C(=O)NCC(F)(F)CN2CCC(N3CCCCC3)CC2)c2c1-c1ccccc1SC2 [Compound 34] |  |  | 14 µM | 12 µM |
| Cn1nc(C(=O)NCC(F)(F)CN2CCC(N3CCOCC3)CC2)c2c1-c1ccccc1SC2 [Compound 35] |  |  | 22 µM | 28 µM |
| Cn1nc(C(=O)NCCCN2CCC(N3CCCCC3)C(F)(F)C2)c2c1-c1ccccc1SC2 (stereo not shown) [Compound 36] |  |  | 71 µM | 62 µM |
| Cn1nc(C(=O)NCC(F)(F)CN2CCC(N3CCC(F)(F)CC3)CC2)c2c1-c1ccccc1SC2 [Compound 37] |  |  | 28 µM | 19 µM |
| Cn1nc(C(=O)NCCCN2CCC(N3CCCC3)CC2)c2c1-c1ccccc1SC2 [Compound 38] |  |  | 4 µM | 3 µM |
| CC(CNC(=O)c1nn(C)c2c1CSc1ccccc1-2)CN1CCN(c2ccccc2)CC1 (stereo not shown) [Compound 40] |  |  | > 100 µM | 21 µM |
| Cn1nc(C(=O)NCCCN2CCC(N3CCNCC3)CC2)c2c1-c1ccccc1SC2 [Compound 41] |  |  | 7 µM | 8 µM |
| Cn1nc(C(=O)NCCCN2CCC(N3CCOCC3)CC2)c2c1-c1ccccc1SC2 [Compound 42] |  |  | 39 µM | 43 µM |

| Structure (SMILES) | IC50 [1, 3] | IC50 ([2]; PLC-PRF-5, 72 h) | IC50 [1, 4] | IC50 [2, 5] |
| --- | --- | --- | --- | --- |
| Cn1nc(C(=O)NCCCN2CCC(N3CCC(F)(F)C3)CC2)c2c1-c1ccccc1SC2 [Compound 43] |  |  | 43 µM | 41 µM |
| CCN1CCN(C2CCN(CCCNC(=O)c3nn(C)c4c3CSc3ccccc3-4)CC2)CC1 [Compound 44] |  |  | 0.2 µM | 2 µM |
| CN(C)C1CCN(CCCNC(=O)c2nn(C)c3c2CSc2ccccc2-3)CC1 [Compound 45] |  |  | 6 µM | 5 µM |
| Cn1nc(C(=O)NCCCN2CCC(N3CCC(O)C3)CC2)c2c1-c1ccccc1SC2 (stereo not shown) [Compound 46] |  |  | 6 µM | 2 µM |
| Cn1nc(C(=O)NCCCN2CCC(N3CCC3)CC2)c2c1-c1ccccc1SC2 [Compound 47] |  |  | 4 µM | 2 µM |
| Cn1nc(C(=O)N2CC(CN3CCC(N4CCCC4)CC3)C2)c2c1-c1ccccc1SC2 [Compound 49] |  |  | 7 µM | 7 µM |
| CN1CCN(C2CCN(CCCNC(=O)c3nn(C)c4c3COc3ccccc3-4)CC2)CC1 [Compound 50] |  |  | 6 µM | 7 µM |
| Cn1nc(C(=O)NCC2CC(N3CCC(N4CCCC4)CC3)C2)c2c1-c1ccccc1SC2 (stereo not shown) [Compound 51] |  |  | 1 µM | 1 µM |
| CN(C)C1CCN(CCCNC(=O)c2nn(C)c3c2CSc2ccccc2-3)C1 (stereo not shown) [Compound 52] |  |  | 50 µM | 59 µM |
| CN(C)CC1CCN(CCCNC(=O)c2nn(C)c3c2CSc2ccccc2-3)C1 (stereo not shown) [Compound 53] |  |  | 63 µM | 92 µM |
| CN(C)C1CN(CCCNC(=O)c2nn(C)c3c2CSc2ccccc2-3)C1 [Compound 54] |  |  | 5 µM | 6 µM |
| Cn1nc(C(=O)NCCCN2CCC(N)CC2)c2c1-c1ccccc1SC2 [Compound 55] |  |  | 5 µM | 4 µM |
| Cn1nc(C(=O)NCCCN2CCC(N3CCN(S(C)(=O)=O)CC3)CC2)c2c1-c1ccccc1SC2 [Compound 56] |  |  | 62 µM | 50 µM |
| Cn1nc(C(=O)NCCCN2CCC(NC(=O)C3CC3)CC2)c2c1-c1ccccc1SC2 [Compound 57] |  |  | 21 µM | 2 µM |
| Cn1nc(C(=O)NCCCN2CCC(N3CCN(Cc4ccccc4)CC3)CC2)c2c1-c1ccccc1SC2 [Compound 58] |  |  | 2 µM | 2 µM |
| CC(=O)N1CCN(C2CCN(CCCNC(=O)c3nn(C)c4c3CSc3ccccc3-4)CC2)CC1 [Compound 59] |  |  | 31 µM | 11 µM |
| CC(C)N1CCN(C2CCN(CCCNC(=O)c3nn(C)c4c3CSc3ccccc3-4)CC2)CC1 [Compound 60] |  |  | 4 µM | 2 µM |
| CCN1CCN(C2CCN(C3CC(CNC(=O)c4nn(C)c5c4CSc4ccccc4-5)C3)CC2)CC1 (stereo not shown) [Compound 61] |  |  | 1 µM | 0.2 µM |
| Cn1nc(C(=O)NCCCN2CCC(N3CCN(C4CC4)CC3)CC2)c2c1-c1ccccc1SC2 [Compound 63] |  |  | 10 µM | 12 µM |
